Patent US6872735B2, “LFA-1 antagonist compounds” (Genentech, Inc., priority 2000, dated 2005)

Tests used:
[1] = target: recombinant human LFA-1 (LFA-1:ICAM-1) (Homo sapiens, UniProt P05107+P20701); assay: PLM2 antibody capture LFA-1:ICAM-1 assay
Experimental: The plates are blocked with 0.5% BSA in assay buffer (0.02M Hepes, 0.15M NaCl, and 1 mM MnCl2) 1 h at room temperature. Plates are washed with 50 mM Tris pH 7.5, 0.1M NaCl, 0.05% Tween 20 and 1 mM MnCl2. Purified full-length recombinant human LFA-1 protein is diluted to 2 μg/ml in assay buffer and 100 μl/well is added to plates and incubated 1 h at 37° C. Plates are washed 3×. 50 μl/well inhibitors, appropriately diluted in assay buffer, are added to a 2× final concentration and incubated for 30′ at 37° C. […] Plates are washed and bound ICAM-Ig is detected with Goat anti-HuIgG(Fc)-HRP for 1 h at room temperature. Plates are washed and developed with 100 μl/well TMB substrate for 5-10′ at room temperature.

[2] = Serum/plasma protein binding (ultrafiltration, LC/MS-MS); format: in vitro ADME; settings: pH 7.4, 37° C., Centrifree ultrafiltration
Experimental: Binding of test compounds was performed according to procedures described in Borga et al (Journal of Pharmacokinetics & Biopharmaceutics, 1997, 25(1):63-77) and Godolphin et al (Therapeutic drug monitoring, 1983, 5:319-23). Duplicate samples of 10 μl of test compound stock solution (1 μg/μL) was spiked into 1 mL of either buffer or serum/plasma adjusted to pH 7.4 using CO2 at room temperature. Samples were equilibrated by incubating vials in a water bath with shaker at 37° C. for 15 minutes. 200 μl of the buffer spiked sample was saved as prefiltrate. 800 μl of buffer spiked samples and 1 ml of serum spiked samples were centrifuged at 1500 g, 37° C., for 30 minutes in a Centrifree ultrafiltration device (Amicon Inc.). Pre and post-filtrates were then analyzed by LC/MS-MS and percent binding of test compound to serum/plasma protein was determined from the post and prefiltrates accounting for any non-specific binding determined from the buffer control.

recombinant human LFA-1 (LFA-1:ICAM-1), sequence (P20701 26-1170): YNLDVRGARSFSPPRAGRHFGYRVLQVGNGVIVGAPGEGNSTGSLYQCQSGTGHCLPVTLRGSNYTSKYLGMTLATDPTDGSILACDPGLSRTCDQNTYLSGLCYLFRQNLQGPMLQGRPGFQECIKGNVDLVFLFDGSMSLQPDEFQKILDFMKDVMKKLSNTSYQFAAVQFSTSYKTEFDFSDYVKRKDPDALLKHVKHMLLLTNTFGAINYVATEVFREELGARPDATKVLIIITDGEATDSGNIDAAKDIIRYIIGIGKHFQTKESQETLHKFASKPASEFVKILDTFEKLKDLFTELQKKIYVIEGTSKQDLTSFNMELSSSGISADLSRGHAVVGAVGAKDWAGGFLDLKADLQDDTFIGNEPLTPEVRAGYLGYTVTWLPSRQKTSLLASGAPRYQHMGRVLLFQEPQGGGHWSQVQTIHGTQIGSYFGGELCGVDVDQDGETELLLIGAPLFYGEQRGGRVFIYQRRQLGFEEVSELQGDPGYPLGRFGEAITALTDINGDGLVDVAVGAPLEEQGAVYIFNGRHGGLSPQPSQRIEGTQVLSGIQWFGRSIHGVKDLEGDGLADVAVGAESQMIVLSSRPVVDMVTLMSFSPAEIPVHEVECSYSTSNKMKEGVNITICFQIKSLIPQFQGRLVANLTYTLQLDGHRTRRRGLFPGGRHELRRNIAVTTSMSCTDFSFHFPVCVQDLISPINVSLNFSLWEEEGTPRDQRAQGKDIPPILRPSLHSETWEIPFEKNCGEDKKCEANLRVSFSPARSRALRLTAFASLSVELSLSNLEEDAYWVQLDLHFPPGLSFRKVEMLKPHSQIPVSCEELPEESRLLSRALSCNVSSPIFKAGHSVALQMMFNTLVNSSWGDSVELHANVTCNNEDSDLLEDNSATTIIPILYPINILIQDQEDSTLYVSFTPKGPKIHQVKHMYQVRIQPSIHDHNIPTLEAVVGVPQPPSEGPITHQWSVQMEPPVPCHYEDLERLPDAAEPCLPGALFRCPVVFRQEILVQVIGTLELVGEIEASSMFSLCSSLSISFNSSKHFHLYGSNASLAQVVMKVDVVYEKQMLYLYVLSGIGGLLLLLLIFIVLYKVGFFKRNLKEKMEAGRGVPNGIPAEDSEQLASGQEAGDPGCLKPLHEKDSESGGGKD
recombinant human LFA-1 (LFA-1:ICAM-1), sequence (P05107 23-769): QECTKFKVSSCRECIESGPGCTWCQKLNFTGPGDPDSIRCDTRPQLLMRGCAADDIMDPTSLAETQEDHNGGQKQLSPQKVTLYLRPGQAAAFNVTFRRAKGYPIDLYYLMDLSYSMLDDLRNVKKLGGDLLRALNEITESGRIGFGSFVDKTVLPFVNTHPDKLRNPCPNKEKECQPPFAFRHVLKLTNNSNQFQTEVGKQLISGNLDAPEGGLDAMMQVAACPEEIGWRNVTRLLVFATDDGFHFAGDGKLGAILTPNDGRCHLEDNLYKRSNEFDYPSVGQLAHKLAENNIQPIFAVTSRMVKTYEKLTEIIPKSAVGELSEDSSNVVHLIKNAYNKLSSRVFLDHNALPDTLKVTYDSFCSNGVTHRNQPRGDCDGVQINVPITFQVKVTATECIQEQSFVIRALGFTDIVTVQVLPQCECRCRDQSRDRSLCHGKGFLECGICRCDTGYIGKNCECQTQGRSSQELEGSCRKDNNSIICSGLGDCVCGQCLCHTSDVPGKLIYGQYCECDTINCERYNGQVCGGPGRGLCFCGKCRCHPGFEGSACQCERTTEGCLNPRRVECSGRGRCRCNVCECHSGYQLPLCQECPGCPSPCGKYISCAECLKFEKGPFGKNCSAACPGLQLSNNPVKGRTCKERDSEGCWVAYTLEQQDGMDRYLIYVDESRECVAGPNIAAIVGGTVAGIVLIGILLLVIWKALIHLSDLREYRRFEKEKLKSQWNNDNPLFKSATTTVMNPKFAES

Row | IC50 [1] | fraction unbound at 15 min, 10 µg/mL [2] | SMILES
1 | 3 nM | 0.086 | O=C(/C=C/c1ccco1)NCc1cc(Cl)c(C(=O)N[C@@H](CNC(=O)C2CSCN2)C(=O)O)c(Cl)c1 (stereo partly drawn) [Compound 42]
2 | 2 nM | 0.17 | CC1CC[C@@H](C(=O)NC[C@H](NC(=O)c2c(Cl)cc(CNC(=O)/C=C/c3ccco3)cc2Cl)C(=O)O)N1 (stereo partly drawn) [Compound 44]
3 | 11 nM | 0.192 | O=C(/C=C/c1ccco1)NCc1cc(Cl)c(C(=O)N[C@@H](CNC(=O)C2CCNCC2)C(=O)O)c(Cl)c1 [Compound 3]
4 | 4 nM | 0.171 | O=C(/C=C/c1ccco1)NCc1cc(Cl)c(C(=O)N[C@@H](CNC(=O)[C@@H]2CCCN2)C(=O)O)c(Cl)c1 [Compound 4]
5 | 3 nM | 0.154 | CC(=O)N1CCC[C@H]1C(=O)NC[C@H](NC(=O)c1c(Cl)cc(CNC(=O)/C=C/c2ccco2)cc1Cl)C(=O)O [Compound 17]
6 | 2 nM | 0.205 | O=C(/C=C/c1ccco1)NCc1cc(Cl)c(C(=O)N[C@@H](CNC(=O)[C@H]2C[C@@H](O)CN2)C(=O)O)c(Cl)c1 [Compound 12]
7 |  | 0.0681 | O=C(N[C@@H](CNC(=O)[C@H]1C[C@@H](O)CN1)C(=O)O)c1c(Cl)cc(C(O)CCc2cccc(Cl)c2)cc1Cl (stereo partly drawn) [Compound 37]
8 | 3 nM | 0.341 | O=C(/C=C/c1ccco1)NCc1cc(Cl)c(C(=O)N[C@@H](CNC(=O)[C@H]2C[C@H](O)CN2)C(=O)O)c(Cl)c1 [Compound 10]
9 | 3 nM | 0.152 | O=C(/C=C/c1ccco1)NCc1cc(Cl)c(C(=O)N[C@@H](CNC(=O)[C@H]2NCC[C@@H]2O)C(=O)O)c(Cl)c1 [Compound 41]
10 | 9 nM | 0.486 | CN(C[C@H](NC(=O)c1c(Cl)cc(CNC(=O)/C=C/c2ccco2)cc1Cl)C(=O)O)C(=O)[C@@H]1CCCN1 [Compound 35]
11 | 7 nM | 0.0457 | O=C(/C=C/c1ccco1)NCc1cc(Cl)c(C(=O)N[C@@H](CNC(=O)[C@@H]2CSCN2)C(=O)O)c(Cl)c1 [Compound 6]
12 | 8 nM | 0.169 | O=C(/C=C/c1ccco1)NCc1cc(Cl)c(C(=O)N[C@@H](CNC(=O)[C@H]2CCCN2)C(=O)O)c(Cl)c1 [Compound 5]
13 | 2 nM | 0.274 | O=C(/C=C/c1ccco1)NCc1cc(Cl)c(C(=O)N[C@@H](CNC(=O)[C@@H]2C[C@@H](O)CN2)C(=O)O)c(Cl)c1 [Compound 14]
14 | 4 nM | 0.224 | C[C@H]1CCN[C@@H]1C(=O)NC[C@H](NC(=O)c1c(Cl)cc(CNC(=O)/C=C/c2ccco2)cc1Cl)C(=O)O [Compound 13]
15 | 12 nM | 0.0671 | O=C(/C=C/c1ccco1)NCc1cc(Cl)c(C(=O)N[C@@H](CNC(=O)[C@@H]2CSC(=O)N2)C(=O)O)c(Cl)c1 [Compound 38]
16 | 4 nM | 0.0749 | O=C(/C=C/c1ccco1)NCc1cc(Cl)c(C(=O)N[C@@H](CNC(=O)[C@H]2CSCN2)C(=O)O)c(Cl)c1 [Compound 15]
17 | 2 nM | 0.0307 | O=C(/C=C/c1ccco1)NCc1cc(Cl)c(C(=O)N[C@@H](CNC(=O)[C@@H]2CSC(=S)N2)C(=O)O)c(Cl)c1 [Compound 40]
18 | 2 nM | 0.0716 | O=C(N[C@@H](CNC(=O)[C@@H]1CSCN1)C(=O)O)c1c(Cl)cc(C(O)CCc2cccc(O)c2)cc1Cl (stereo partly drawn) [Compound 36]
19 | 5 nM | 0.072 | O=C(/C=C/c1ccco1)NCc1cc(Cl)c(C(=O)N[C@@H](CNC(=O)C2CCCO2)C(=O)O)c(Cl)c1 (stereo partly drawn) [Compound 51]
20 | 2 nM | 0.228 | O=C(/C=C/c1ccco1)NCc1cc(Cl)c(C(=O)N[C@@H](CNC(=O)[C@@H]2CCCCN2)C(=O)O)c(Cl)c1 [Compound 9]
